Consider two compounds from patent US7998991B2, “Neurotherapeutic treatment for sexual dysfunction” (Revaax Pharmaceuticals, LLC, priority 2001, dated 2011).

Data set [1] has as its system cotton-top tamarin (Saguinus oedipus). Kind of data set: Novel object test for anxiolytic activity in cotton-top tamarins. The class given is in vivo. Conditions: oral 1 mg/kg, three doses a day for two days. As to the method: Eight male/female pairs of tamarins with long standing pair bonds were tested following oral treatments of CLAV and vehicle (VEH) control. There were no offspring since males were vasectomized. Both members of a pair received the same treatments at the same times. Each animal served as its own control being tested both with CLAV or VEH one week apart. The treatment schedule was counter-balanced. CLAV was dissolved in water and dispensed onto a small cookie in a volume of 100 μl. A single CLAV cookie was given to each member of a pair at an approximate dose of 1 mg/kg body weight. Animals were given three CLAV cookies each day for two consecutive days. The 1st cookie was given at 8:00 AM prior to the morning feeding, the 2nd at 11:00 AM prior to the noon feeding and the 3rd at 2:00 PM prior to the late afternoon snack. All animals were scored for anti-anxiety activity 60 min after the 3rd treatment on the second day.
Two observers blind to the treatment independently scored behavioral activity. To elicit anxious/stressful behavior a novel object was placed into the home cage. A different novel object was used for each test session and the object presentation was counter-balanced. Following the presentation of the novel object animals were scored for a duration of 15 min for: 1) latency to approach and latency to touch the object, 2) time spent in contact or proximity with the object, 3) face and head movement (frowns, head shakes and head cocks that reflect tension), 4) scratching (a validated measure of anxiety in macaques), 5) piloerection (autonomic stress response), and 6) visual scanning (nervous vigilance).

The test system is the same in data set [2]. The data set is described as follows: Scoring of erections, mounts and female solicitations in cotton-top tamarins. Type of data set: in vivo. Conditions: oral 1 mg/kg.
Data set [3] is described as follows: Pharmacokinetic assessment of CLAV run by IVEDCO. Conditions: from plasma 2.5 μg/ml and CSF/plasma ratio 0.25. As to the method:
This treatment regimen of three doses each day for two consecutive days was chosen to acclimate the animals to the treatment procedure (day 1) and to achieve steady-state blood concentration before testing (day 2). A pharmacokinetic assessment of CLAV was run by IVEDCO (Irving Tex.) which estimated an oral dose of 1 mg/kg every three hrs would produce steady-state levels yielding an average plasma concentration of 2.5 μg/ml at the time of testing. Since the CSF/plasma ratio is 0.25 the estimated concentration in the brain would be around 0.3 μM. Given the rate of clearance of CLAV, treatments from day 1 should not have contributed to blood levels of drug on day 2.

The next data set deals with nucleus accumbens. Kind of data set: Microdialysis of extracellular neurotransmitter levels after IP CLAV. The class given is in vivo, Sprague Dawley rats. The procedure: To test this hypothesis, extracellular neurotransmitter levels in the area of the nucleus accumbens were assessed with microdialysis following CLAV treatment. The accumbens is part of the limbic forebrain best now for its association with the pathophysiology of schizophrenia and drug addiction but also thought to be involved in sensitization to early life trauma leading to the anxiety disorder PTSD or post traumatic stress disorder ([…] and Bremner 1999). Ten male, Sprague Dawley rats were anesthetized with sodium pentobarbital (50 mg/kg) and implanted with a unilateral microdialysis guide cannula aimed at the nucleus accumbens. Two days after recovery from surgery a microdialysis probe (2 mm) was lowered to the area and connected to an infusion pump through Tygon tubing. The dialysate was artificial CSF at pH 7.4 delivered at a flow rate of 2 μl/min. The first 120 min of dialysate will be discarded. Thereafter, samples were collected at 30 min intervals prior to and following IP CLAV treatment (10 μg/kg). Samples were collected into microfuge tubes containing 5 μl of 0.16 N perchloric acid to stabilize catecholamines. At the end of the study, animals were sacrificed and the brains prepared for histology to verify the site of the microdialysis probe.

The subject of the next data set is monoamine transporters. The data set is described as follows: Binding of CLAV to monoamine transporters.
The next data set concerns the target T1, monoamine oxidase A (Homo sapiens, UniProt P21397).
T1 sequence (P21397 1-527): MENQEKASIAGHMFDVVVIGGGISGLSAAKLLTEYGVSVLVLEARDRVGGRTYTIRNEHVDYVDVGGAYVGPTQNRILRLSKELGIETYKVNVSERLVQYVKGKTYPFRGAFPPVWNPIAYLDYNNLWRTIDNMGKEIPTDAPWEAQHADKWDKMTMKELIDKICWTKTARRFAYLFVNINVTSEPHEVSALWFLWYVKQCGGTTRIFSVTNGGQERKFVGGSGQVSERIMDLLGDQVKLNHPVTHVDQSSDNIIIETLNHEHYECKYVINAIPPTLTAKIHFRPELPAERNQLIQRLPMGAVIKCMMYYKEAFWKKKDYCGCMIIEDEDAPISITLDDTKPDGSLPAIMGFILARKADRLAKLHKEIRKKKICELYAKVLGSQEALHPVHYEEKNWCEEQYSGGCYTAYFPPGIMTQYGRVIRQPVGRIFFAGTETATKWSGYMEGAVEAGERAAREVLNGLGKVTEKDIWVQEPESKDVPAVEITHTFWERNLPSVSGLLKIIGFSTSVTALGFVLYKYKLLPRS
Kind of data set: Binding of CLAV to monoamine oxidase A.

In data set [4] the test system is well known signaling receptors or transporters. Kind of data set: Binding of CLAV to well known signaling receptors or transporters.
In data set [5] the test system is prefrontal cortex and nucleus accumbens. Conditions: Cartmell et al., 2000b; Hertel et al. 1997; cited from earlier work.

For the compound `O=C(O)[C@H]1/C(=C/CO)O[C@@H]2CC(=O)N21` [CLAV, clavulanic acid], in data set [1], the “latency to approach the novel object, CLAV vs VEH” value is “no significant difference”; the “latency to touch the novel object, CLAV vs VEH” value is on record as “no significant difference”; the “time spent in proximity to the object, CLAV vs VEH” value is recorded as “Neither was there any difference”. For the same compound, the “combined measures of anxious/nervous behaviors (3, 4, 5 & 6)” value in data set [1] (scored 15 min, 60 min after 3rd treatment on day 2, p<0.05 vs VEH) was 12.7+4.8. Moreover, the “females showing solicitation behaviors” value in data set [2] (eight females, three doses a day for two days) is reported as “Two of the eight”. Further, the “males showing at least one erection in 15 min” value in data set [2] (eight males, three doses a day for two days) is “All eight”. The “mean erections in 15 min” value in data set [2] (males, three doses a day for two days) amounted to 2.25 erections in 15 min. The compound further had a rate of erections in data set [2] (males, p<0.02 vs VEH) of 9.0 erections per hour. The “mounting behavior, CLAV vs VEH” value in data set [2] (three doses a day for two days) was “no significant difference”. Besides, the “estimated concentration in the brain” value in data set [3] is recorded as “around 0.3 μM”. Moreover, the DOPAC levels result with nucleus accumbens (IP 10 μg/kg, AC-1 to AC-5) is on record as “only rose in two cases”. In the data set with nucleus accumbens (IP 10 μg/kg, lateral ventricle, bed nucleus of stria terminalis, head of the caudate, ventrolateral thalamus), the “changes in dopamine and serotonin neurotransmission, probe outside the nucleus accumbens” value is reported as “little if any changes”. Besides, in the data set with nucleus accumbens (animal AC-1, IP 10 μg/kg), the “dopamine metabolite 3,4-dihydroxyphenylacetic acid (DOPAC) over time” value was “robust increase”, the “dopamine metabolite homovanillic acid (HVA) over time” value is recorded as “robust increase”, the dopamine over time result is listed as “modest decrease” and the “extracellular levels of serotonin over time” value was “increase”. Further, the “serotonin metabolite 5-hydroxyindoleacetic acid (HIAA) over time” value in the data set with nucleus accumbens (animal AC-1, IP 10 μg/kg) is recorded as “robust increase”. In addition, in the data set on monoamine transporters, the “binding to monoamine transporters” value was “Neither the monoamine transporters nor the degradative enzyme monoamine oxidase A show binding”. Moreover, the “binding to monoamine oxidase A” value on monoamine oxidase A was “Neither the monoamine transporters nor the degradative enzyme monoamine oxidase A show binding”. In data set [4], the “binding to well known signaling receptors or transporters” value was “does not appear to bind”.
For `Cc1nc2n(c(=O)c1CCN1CCC(c3noc4cc(F)ccc34)CC1)CCCC2` [risperidone], the “dopamine and serotonin neurotransmission in the prefrontal cortex and nucleus accumbens” value in data set [5] is reported as “increase”.
